# Source: patent US5138069A (E. I. Du Pont de Nemours and Company, priority 1988, dated 1992)
# Read-outs that look alike come from different tables or passages of the source.
# Assays:
# AII receptor = assay: Angiotensin II receptor binding (displacement of 3H-AII); settings: read-out: Angiotensin II Receptor Binding IC50, rat adrenal cortical microsomes, 2 nM 3H-AII, 1 hour, room temperature
# Description: The assay was carried out according to the method described by [Glossmann et al., J. Biol. Chem., 249, 825 (1974)], but with some modifications. The reaction mixture contained rat adrenal cortical microsomes (source of AII receptor) in Tris buffer and 2 nM of ^3 H-AII with or without potential AII antagonist. This mixture was incubated for 1 hour at room temperature and the reaction was subsequently terminated by rapid filtration and rinsing through glass micro-fibre filter. Receptor-bound ^3 H-AII trapped in filter was quantitated by scintillation counting.
# (§1) Compounds listed in Table 26 were tested in the same manner as described for Table 25, except that in the test for antihypertensive effects in renal hypertensive rats, the compounds were administered orally at 30 mg/kg and intravenously at 3 mg/kg.
# Renal Hypertensive Rats = assay: Antihypertensive effects in renal hypertensive rats; assay type: in vivo; settings: Rattus norvegicus, Table 25; for minimal effective dose at 10 mg/kg: intravenous, 10 mg/kg or less; for minimal effective dose at 100 mg/kg: oral, 100 mg/kg or less
# Description: This procedure increases blood pressure by increasing renin production with consequent elevation of AII levels. Compounds are administered orally at 100 mg/kg and/or intravenously via a cannula in the jugular vein at 10 mg/kg. Arterial blood pressure is continuously measured directly through a carotid artery cannula and recorded using a pressure transducer and a polygraph. Blood pressure levels after treatment are compared to pretreatment levels to determine the antihypertensive effects of the compounds (See Table 25).
# as §1
# [1] = Table 25, tested as sodium salt
Structure (SMILES),IC50 (AII receptor; Table 25) [µM],minimal effective dose at 10 mg/kg (Renal Hypertensive Rats) [mg/kg],minimal effective dose at 100 mg/kg (Renal Hypertensive Rats) [mg/kg],IC50 (AII receptor; [1]) [µM],minimal effective dose at 100 mg/kg (Renal Hypertensive Rats; tested as sodium salt) [mg/kg],minimal effective dose at 10 mg/kg (Renal Hypertensive Rats; tested as sodium salt) [mg/kg],IC50 (AII receptor; Table 26) [µM]
"CCCCc1nc(Cl)c(CC(=O)OC)n1Cc1ccc(NC(=O)[C@@H]2CCCC[C@@H]2NS(=O)(=O)C(F)(F)F)cc1 (relative stereo) [Example 74 (cis compound), methyl 2-butyl-4-chloro-1-[4-(cis-2-(trifluoromethanesulfonamido)cyclohexanecarboxamido)benzyl]imidazole-5-acetate]",4.5,< 10,> 100,–,–,–,–
"CCCCc1nc(Cl)c(CC(=O)OC)n1Cc1ccc(NC(=O)[C@@H]2CCCC[C@H]2NS(=O)(=O)C(F)(F)F)cc1 (relative stereo) [Example 74 (trans compound), Methyl 2-butyl-4-chloro-1-[4-(trans-2-(trifluoromethanesulfonamido)cyclohexanecarboxamido)benzyl]imidazole-5-acetate]",3.9,< 10,> 100,–,–,–,–
"CCCCc1nc(CO)c(Cl)n1Cc1ccc(-c2occc2C(=O)O)cc1 (single isomer, unassigned) [Example 179, 2-n-butyl-1-[4-(3-carboxyfuran-2-yl)benzyl]-5-chloro-4-(hydroxymethyl)imidazole]",4.4,< 10,> 100,–,–,–,–
"CCCCc1nc(Cl)c(CC(C)C(=O)N[C@H](C)c2ccccc2)n1Cc1ccc(NC(=O)c2ccccc2C(=O)O)cc1 (single isomer, unassigned) [Example 238, d and l 3-[1-(4-(2-Carboxybenzamido)benzyl-2-butyl-4-chloroimidazol-5-yl]-2-methylpropanoic acid, d-(+)-α-methylbenzylamide]",0.11,< 10,> 100,–,–,–,–
"CCCCc1nc(CC(=O)OC)c(Cl)n1Cc1ccc(NC(=O)c2ccccc2C(=O)O)cc1 [Example 3, Methyl 2-butyl-1-[4-(2-carboxybenzamido)benzyl]-5-chloroimidazole-4-acetate]",–,–,–,0.42,> 100,–,–
CCCCc1nc(Cl)c(CC(=O)OC)n1Cc1ccc(NC(=O)c2ccccc2-c2ccccc2C(=O)O)cc1 [Example 5],–,–,–,0.19,> 100,–,–
CCCCc1nc(Cl)c(CC(=O)OC)n1Cc1ccc(NC(=O)c2c(C(=O)O)cccc2[N+](=O)[O-])cc1 [Example 7],0.42,< 10,> 100,–,–,–,–
CCCCc1nc(Cl)c(CC(=O)OC)n1Cc1ccc(NC(=O)c2c(Cl)ccc(Cl)c2C(=O)O)cc1 [Example 16],0.018,< 10,> 100,–,–,–,–
"CCCCc1nc(Cl)c(CC(=O)OC)n1Cc1ccc(NS(=O)(=O)C(F)(F)F)cc1 [Example 21, Methyl 2-butyl-4-chloro-1-[4-(trifluoromethylsulfonamido)benzyl]imidazole-5-acetate]",–,–,–,2.1,> 100,< 10,–
"CCCCc1nc(Cl)c(Cc2nnn[nH]2)n1Cc1cccc(-c2nnn[nH]2)c1 [Example 26, 2-Butyl-4-chloro-5-[(1H-tetrazol-5-yl)methyl]-1-[3-(1H-tetrazol-5-yl)benzyl]imidazole]",–,–,–,3.8,> 100,–,–
"CCCCc1nc(Cl)c(Cc2nnn[nH]2)n1Cc1ccc(-c2nnn[nH]2)cc1 [Example 27, 2-Butyl-4-chloro-5-[(1H-tetrazol-5-yl)methyl]-1-[4-(1H-tetrazol-5-yl)benzyl]imidazole]",–,–,–,1.2,< 100,< 10,–
"CCCCc1nc(Cl)c(CC(=O)OC)n1Cc1ccc(N2C(=O)c3ccccc3C2=O)cc1 [Example 29, Methyl 2-butyl-4-chloro-1-(4-N-phthalimidobenzyl)imidazole-5-acetate]",3.1,< 10,> 100,–,–,–,–
"CCCCc1nc(Cl)c(CC(=O)OC)n1Cc1ccc(NC(=O)c2ccccc2NS(=O)(=O)C(F)(F)F)cc1 [Example 30, Methyl 2-butyl-4-chloro-1-[4-((N-trifluoromethanesulfonyl)anthranilamido)benzyl]-imidazole-5-acetate]",–,–,–,0.39,< 100,< 10,–
CCCCc1nc(Cl)c(CC(=O)OC)n1Cc1ccc(NC(=O)c2cc(I)ccc2NS(=O)(=O)C(F)(F)F)cc1 [Example 35],–,–,–,3.4,< 100,< 10,–
CCCCc1nc(Cl)c(CC(=O)OC)n1Cc1ccc(NC(=O)c2cccc(C)c2NS(=O)(=O)C(F)(F)F)cc1 [Example 36],–,–,–,0.19,> 100,< 10,–
CCCCc1nc(Cl)c(CC(=O)OC)n1Cc1ccc(NC(=O)c2ccccc2NS(C)(=O)=O)cc1 [Example 51],2.3,> 100,> 100,–,–,–,–
CCCCc1nc(Cl)c(CC(=O)OC)n1Cc1ccc(NC(=O)c2cc(C)ccc2NS(=O)(=O)C(F)(F)F)cc1 [Example 53A],0.81,> 100,> 100,–,–,–,–

Structure (SMILES),IC50 (AII receptor; Table 25) [µM],minimal effective dose at 10 mg/kg (Renal Hypertensive Rats) [mg/kg],minimal effective dose at 100 mg/kg (Renal Hypertensive Rats) [mg/kg],IC50 (AII receptor; [1]) [µM],minimal effective dose at 100 mg/kg (Renal Hypertensive Rats; tested as sodium salt) [mg/kg],minimal effective dose at 10 mg/kg (Renal Hypertensive Rats; tested as sodium salt) [mg/kg],IC50 (AII receptor; Table 26) [µM]
CCCCc1nc(Cl)c(CO)n1Cc1ccc(NC(=O)c2ccccc2NS(=O)(=O)C(F)(F)F)cc1 [Example 53B],0.36,< 10,–,–,–,–,–
CCCCc1ncc(CO)n1Cc1ccc(NC(=O)c2ccccc2NS(=O)(=O)C(F)(F)F)cc1 [Example 53C],0.21,< 10,–,–,–,–,–
"CCCCCCCc1nc(Cl)c(CO)n1Cc1ccc(NC(=O)c2ccccc2NS(=O)(=O)C(F)(F)F)cc1 [Example 54, 4-Chloro-2-heptyl-5-hydroxymethyl-1-[4-((N-trifluoromethanesulfonyl)-anthranilamido)benzyl]imidazole]",7.2,< 10,–,–,–,–,–
"COCCc1nc(Cl)c(CO)n1Cc1ccc(NC(=O)c2ccccc2C(=O)O)cc1 [Example 55, 1-[4-(2-Carboxybenzamido)-benzyl]-4-chloro-5-hydroxymethyl-2-(2-methoxyethyl)imidazole]",0.93,< 10,> 100,–,–,–,–
CCc1nccn1Cc1ccc(NC(=O)c2ccccc2NS(=O)(=O)C(F)(F)F)cc1 [Example 57],4.9,< 10,> 100,–,–,–,–
CC(C)c1nccn1Cc1ccc(NC(=O)c2ccccc2NS(=O)(=O)C(F)(F)F)cc1 [Example 58],8.3,< 10,> 100,–,–,–,–
CCCCc1nccn1Cc1ccc(NC(=O)c2ccccc2NS(=O)(=O)C(F)(F)F)cc1 [Example 59],3,> 100,> 100,–,–,–,–
CCCc1nccn1Cc1ccc(NC(=O)c2ccccc2C(=O)O)cc1 [Example 63],–,–,–,3.7,> 100,–,–
CCCCc1nccn1Cc1ccc(NC(=O)c2ccccc2C(=O)O)cc1 [Example 64],0.62,< 10,> 100,–,–,–,–
CCCCCc1nccn1Cc1ccc(NC(=O)c2ccccc2C(=O)O)cc1 [Example 65],0.24,< 10,> 100,–,–,–,–
CCCCCCc1nccn1Cc1ccc(NC(=O)c2ccccc2C(=O)O)cc1 [Example 66],0.35,< 10,> 100,–,–,–,–
CCCCCCCc1nccn1Cc1ccc(NC(=O)c2ccccc2C(=O)O)cc1 [Example 67],1.1,< 10,> 100,–,–,–,–
COc1ccc(Cc2nccn2Cc2ccc(NC(=O)c3ccccc3C(=O)O)cc2)cc1 [Example 70],2.5,< 10,> 100,–,–,–,–
"CSc1ncc(CO)n1Cc1ccc(NC(=O)c2ccccc2C(=O)O)cc1 [Example 72, 1-[4-(2-Carboxybenzamido)-benzyl]-5-hydroxymethyl-2-(methylthio)-imidazole]",6.5,< 10,> 100,–,–,–,–
"CCCCc1nc(C#N)c(C(N)=O)n1Cc1ccc(-c2ccccc2-c2nnn[nH]2)cc1 [Example 342, 2-n-Butyl-5-carboxamido-4-cyano-1-[(2'-(1H-tetrazol-5-yl)biphenyl-4-yl)methyl]imidazole]",–,–,–,–,–,–,0.037
"CCCCc1nc(Cl)c(CN2CCN(c3ccccc3OC)CC2)n1Cc1ccc(-c2ccccc2-c2nnn[nH]2)cc1 [Example 354, 2-n-Butyl-4-chloro-5-[(4-(2-methoxyphenyl)piperazin-1-yl)methyl]-1-[(2'-(1H-tetrazol-5-yl)biphenyl-4-yl)methyl]imidazole]",0.35,–,–,–,–,–,0.35
